Source: patent US9239334B2, “Fatty acid C16: 1N7-palmitoleate a lipokine and biomarker for metabolic status” (PRESIDENT AND FELLOWS OF HARVARD COLLEGE, priority 2008, dated 2016)

How the values were obtained:
SCD-1 protein = assay: Immunoblotting of Flag-tagged SCD-1 in hepatocytes; format: cell-based; conditions: CMV promoter construct
Description: FIG. 3F presents data from the immunoblotting of Flag-tagged SCD-1 in hepatocytes treated with control, palmitate and palmitoleate. Anti-tubulin blot was used as loading control. The observations reported herein also raised the possibility that C16:1n7-palmitoleate might be the lipid species responsible, at least in part, for the metabolic activities linked to adipose tissue FABPs. […] Because palmitoleate is nearly ten-times more abundant in the plasma of FABP^−/− mice than is AA (FIG. 2C), it is most likely accounts for the suppression of SCD-1 under physiologically relevant conditions. The effects of palmitoleate on the levels of SCD-1 protein, which is known to have a very short half-life (Heinemann & Ozols, 68 Prostaglandins Leukot. Essent. Fatty Acids 123-33 (2003)), were also examined. […] Maeda et al., 2005.

C2C12 cells = assay: Glucose uptake in C2C12 myotubes; format: cell-based
Description: FIG. 3H is the glucose uptake in C2C12 myotubes treated with insulin or palmitoleate. Top panel is immunoblotting of C2C12 cell lysates treated with insulin or palmitoleate using anti-Glut1 or Glut4 antibodies. *: p<0.05.
The effect of C16:1n7-palmitoleate on muscle insulin signaling was explored by pre-treating C2C12 myotubes with either palmitate or palmitoleate overnight and then stimulating the cells with insulin. […] Conversely, C16:1n7-palmitoleate had little effect on its own in this in vitro setting (FIG. 3G). When cells were co-treated with both palmitate and palmitoleate, however, palmitoleate rescued the palmitate-induced reduction in insulin-stimulated AKT phosphorylation. […] The mechanism of this increase is not, apparently, associated with alterations in the absolute levels of Glut1 and Glut4 proteins (FIG. 3H).

[1] = test system: MCP1, TNFalpha and IL6 expression in adipocyte fraction; assay: Cytokine expression in adipocyte fraction of epididymal fat pads; format: cell-based, mice; conditions: 500 μM for 2 hrs, compared to palmitate
Experimental: FIGS. 16A and 16B present cytokine expression in adipocyte and stromal vascular fractions treated with fatty acids. Epidydamal fat pads were dissected from WT mice and separated into adioycte and stromal vascular fractions as described in Experimental Procedures. Each fraction was treated with palmitate or palmitoleate at 500 μM for 2 hrs. Gene expression was determined with quantitative real-time PCR.
Obesity is associated with low-grade inflammation and increased inflammatory activities in liver and adipose tissues contribute to the development of systemic insulin resistance. Hotamisligil, 444 Nature 860-67 (2006). The effect of plasma lipids on adipose tissue inflammatory responses was explored using explants of adipose tissue treated with lipids from WT or FABP^−/− mice. […] Because adipose tissue contains multiple cell populations in addition to fat cells, adipose tissue was separated into adipocytes and stromal vascular fractions, and each fraction treated with either palmitate or palmitoleate.

[2] = test system: insulin receptor, IRS-1, IRS-2 and AKT phosphorylation in liver; assay: Insulin signaling in liver of lipid-infused mice (immunoblotting); format: in vivo; conditions: fatty acid:palmitoleate infusion 3.3 μl/min
Description: FIGS. 7A-7G show data on the regulation of insulin signaling and glucose metabolism by palmitoleate. FIG. 7A is the basal and insulin-stimulated phosphorylation of insulin receptor (IR), insulin receptor substrate-1 (IRS-1) and -2 (IRS-2) and AKT in liver of mice infused with vehicle (Veh), TG:palmitoleate (C16:1n7) or TG:palmitate (C16). Representative blots are shown and quantifications on the right are averaged results of three mice in each treatment group. […] Representative blots are shown and quantifications on the right are averaged results of three mice in each treatment group.
The left panel presents the insulin-stimulated phosphorylation of insulin receptor and AKT in liver of mice infused with vehicle or palmitoleate. […] Mice were infused with vehicle or palmitoleate at 3.3 μl/min for six hrs, and insulin (1 U/Kg) was injected through the infusing tubing. Three minutes after insulin injection, tissues were collected and immunoblotting analyses were performed.
The present invention also provides for the regulation of insulin action by increased circulating palmitoleate. To study whether palmitoleate regulates systemic metabolic responses, lipid infusions were administered in conscious mice. Lipid infusion has been used widely to investigate the relationship between plasma FFAs and insulin resistance, but almost all studies using this protocol utilized preparations of natural lipid products containing a variety of fatty acids. Kim et al., 114 J. Clin. Invest. 823-27 (2004); Kim et al., 277 J. Biol. Chem. 32915-22 (2002); Yu et al., 277 J. Biol. Chem. 50230-36 (2002). […]
Samples of 200 μl serum were collected using heparin-coated glass tubes and spun at 13,000 g in a microcentrifuge to separate the plasma. […] Tissue protein lysates was separated with SDS-PAGE gels and phosphorylated or total proteins were detected with the following antibodies: phospho AKT Serine 473, AKT, insulin receptor, phospho-tyrosine (Santa Cruz Biotech.); IRS-1 and IRS-2 (Upstate); phospho-GSK and GSK (Cell Signaling Tech.); phospho-insulin receptor from (Calbiocbem). […]

In the case of `CCCCCC/C=C\CCCCCCCC(=O)O` [palmitoleate, C16:1n7-palmitoleate], the “Flag-tagged SCD-1 protein level” value (SCD-1 protein) is reported as “significantly increased SCD-1 protein degradation”, the glucose uptake (C2C12 cells) is reported as “stimulated glucose uptake into C2C12 cells to a level similar to insulin” and the “cytokine expression in adipocyte fractions” value [1] is reported as “suppressed”. For the same compound, the “liver insulin signaling (insulin receptor and AKT activation)” value [2] was “enhanced”.
